Where “and” joins values, the source holds several entries; their conditions need not be identical. Equal values may be shown once. Inconclusive results and toxic doses are left out. How the source made its calls: active means survival T/C of 150% or more; inactive means T/C below 125% in these data. Non-standard residues stand in square brackets, D forms with d. Residues, ends and D or L forms follow the SMILES beside them. ξ: configuration not given here. ξIva = CCC(C)(N)C(=O)O
Test system: CD2F1 mice, L1210 leukemia ip, survival T/C
Assay: NCI In Vivo Anticancer Drug Screen. Data for tumor model L1210 Leukemia (intraperitoneal) in CD2F1 (CDF1) mice
Settings: higher = longer survival
Summary of the method: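 Tumor-bearing mice (transplanted tumor) were split into treated and vehicle control groups, and the measured endpoint of each treated group was divided by that of its vehicle controls.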

[1] = endpoint: mean survival time, dose: 100.0 mg/kg/injection, schedule: Q04DX003 (ip), vehicle: saline
[2] = endpoint: mean survival time, dose: 200.0 mg/kg/injection, schedule: Q04DX003 (ip), vehicle: saline
[3] = endpoint: mean survival time, dose: 400.0 mg/kg/injection, schedule: Q04DX003 (ip), vehicle: saline
[4] = endpoint: mean survival time, dose: 100.0 mg/kg/injection, schedule: Q01DX009 (ip), vehicle: saline with Tween-80
[5] = endpoint: mean survival time, dose: 100.0 mg/kg/injection, schedule: Q04DX003 (ip), vehicle: saline with Tween-80
[6] = endpoint: mean survival time, dose: 200.0 mg/kg/injection, schedule: Q01DX009 (ip), vehicle: saline with Tween-80
[7] = endpoint: mean survival time, dose: 200.0 mg/kg/injection, schedule: Q04DX003 (ip), vehicle: saline with Tween-80
[8] = endpoint: mean survival time, dose: 400.0 mg/kg/injection, schedule: Q04DX003 (ip), vehicle: saline with Tween-80
[9] = endpoint: mean survival time, dose: 100.0 mg/kg/injection, schedule: Q01DX001 (ip), vehicle: saline
[10] = endpoint: mean survival time, dose: 200.0 mg/kg/injection, schedule: Q01DX001 (ip), vehicle: saline
[11] = endpoint: mean survival time, dose: 200.0 mg/kg/injection, schedule: Q04DX002 (ip), vehicle: saline with Tween-80
[12] = endpoint: mean survival time, dose: 50.0 mg/kg/injection, schedule: Q01DX009 (ip), vehicle: saline with Tween-80

Measured: T/C

CCOc1nnc(-c2ccccc2)o1
inactive: endpoint: mean survival time, dose: 12.5 mg/kg/injection, schedule: Q01DX009 (ip), vehicle: other 92 % of control | endpoint: mean survival time, dose: 25.0 mg/kg/injection, schedule: Q01DX009 (ip), vehicle: other 96 % of control | endpoint: mean survival time, dose: 50.0 mg/kg/injection, schedule: Q01DX009 (ip), vehicle: other 97 % of control | endpoint: mean survival time, dose: 100.0 mg/kg/injection, schedule: Q01DX009 (ip), vehicle: other 100 % of control | endpoint: mean survival time, dose: 200.0 mg/kg/injection, schedule: Q01DX009 (ip), vehicle: other 97 % of control

CC(C)(C)C(=O)CC(O)(C(F)(F)F)C(F)(F)F
inactive: [1] 100 % of control | [2] 97 % of control | [3] 100 % of control

COc1ccc([C@@H]2c3cc4c(cc3C[C@H]3COC(=O)[C@@H]32)OCO4)cc1OC
inactive: endpoint: mean survival time, dose: 11.0 mg/kg/injection, schedule: Q01DX009 (ip), vehicle: saline with Tween-80 110 % of control | endpoint: mean survival time, dose: 22.0 mg/kg/injection, schedule: Q01DX009 (ip), vehicle: saline with Tween-80 110 % of control | endpoint: mean survival time, dose: 33.0 mg/kg/injection, schedule: Q01DX009 (ip), vehicle: saline with Tween-80 109 % of control | endpoint: mean survival time, dose: 67.0 mg/kg/injection, schedule: Q01DX009 (ip), vehicle: saline with Tween-80 107 % of control

CCC(C)(NC(=O)CN)C(=O)O (stereo not drawn) (H-Gly-[ξIva]-OH)
inactive: endpoint: mean survival time, dose: 100.0 mg/kg/injection, schedule: Q04DX002 (ip), vehicle: saline 90 % of control | endpoint: mean survival time, dose: 200.0 mg/kg/injection, schedule: Q04DX002 (ip), vehicle: saline 93 % of control | endpoint: mean survival time, dose: 400.0 mg/kg/injection, schedule: Q04DX002 (ip), vehicle: saline 90 % of control

CCCCCC(CN(C)C)C(=O)/C=C/c1ccc(Cl)c(Cl)c1 (stereo not drawn)
inactive: endpoint: mean survival time, dose: 6.25 mg/kg/injection, schedule: Q01DX009 (ip), vehicle: acetone 92 % of control | endpoint: mean survival time, dose: 12.5 mg/kg/injection, schedule: Q01DX009 (ip), vehicle: acetone 94 % of control | endpoint: mean survival time, dose: 25.0 mg/kg/injection, schedule: Q01DX009 (ip), vehicle: acetone 97 % of control

CCCCCC(CN(C)C)C(/C=C/c1ccccc1)OC(=O)c1ccc([N+](=O)[O-])cc1 (stereo not drawn)
inactive: [4] 97 % of control | [5] 90 % of control | [6] 100 % of control | [7] 105 % of control | [8] 106 % of control

NC1=CC(=O)C(c2ccccc2)C1=O (stereo not drawn)
inactive: endpoint: mean survival time, dose: 100.0 mg/kg/injection, schedule: Q01DX001 (ip), vehicle: saline with Tween-80 100 % of control | endpoint: mean survival time, dose: 200.0 mg/kg/injection, schedule: Q01DX001 (ip), vehicle: saline with Tween-80 92 % of control | endpoint: mean survival time, dose: 400.0 mg/kg/injection, schedule: Q01DX001 (ip), vehicle: saline with Tween-80 92 % of control

Clc1ccc2c(Cl)c3c(nc2c1)CCCC3
inactive: [9] 100 % of control | [10] 100 % of control

CCOc1cc2c(cc1C(C)c1ccc(OC)cc1)OCO2 (stereo not drawn)
inactive: endpoint: median survival time, dose: 12.5 mg/kg/injection, schedule: Q01DX009 (ip), vehicle: distilled water + alcohol 103 % of control | endpoint: median survival time, dose: 25.0 mg/kg/injection, schedule: Q01DX009 (ip), vehicle: distilled water + alcohol 93 % of control and 104 % of control | endpoint: median survival time, dose: 50.0 mg/kg/injection, schedule: Q01DX009 (ip), vehicle: distilled water + alcohol 115 % of control and 98 % of control | endpoint: median survival time, dose: 100.0 mg/kg/injection, schedule: Q01DX009 (ip), vehicle: distilled water + alcohol 98 % of control and 108 % of control | endpoint: median survival time, dose: 200.0 mg/kg/injection, schedule: Q01DX009 (ip), vehicle: distilled water + alcohol 111 % of control

CC(=O)Nc1ccc2c(c1)CCCC2
inactive: endpoint: mean survival time, dose: 100.0 mg/kg/injection, schedule: Q04DX002 (ip), vehicle: saline with Tween-80 101 % of control | [11] 104 % of control | endpoint: mean survival time, dose: 400.0 mg/kg/injection, schedule: Q04DX002 (ip), vehicle: saline with Tween-80 104 % of control

Cc1ccccc1S(=O)(=O)N/N=C/c1ccsc1
inactive: endpoint: median survival time, dose: 50.0 mg/kg/injection, schedule: Q04DX002 (ip), vehicle: saline with Tween-80 90 % of control | endpoint: median survival time, dose: 100.0 mg/kg/injection, schedule: Q04DX002 (ip), vehicle: saline with Tween-80 90 % of control | endpoint: median survival time, dose: 200.0 mg/kg/injection, schedule: Q04DX002 (ip), vehicle: saline with Tween-80 100 % of control | endpoint: median survival time, dose: 400.0 mg/kg/injection, schedule: Q04DX002 (ip), vehicle: saline with Tween-80 90 % of control

O=P(O)(O)C1c2ccccc2-c2ccccc21
inactive: [4] 100 % of control | [5] 97 % of control | [6] 94 % of control | [7] 96 % of control | [8] 100 % of control

CCCCCCOC(=O)C[n+]1ccc(C(N)=O)cc1
inactive: [1] 101 % of control | [2] 94 % of control

O=C(c1ccccc1)N(C(=O)c1ccccc1)C1CCCCC1
inactive: [5] 100 % of control | [7] 94 % of control | [8] 93 % of control

CC1(C)C([N+](C)(C)C)CS1(=O)=O (stereo not drawn)
inactive: [9] 105 % of control | [1] 96 % of control | [10] 103 % of control | [2] 101 % of control | endpoint: mean survival time, dose: 400.0 mg/kg/injection, schedule: Q01DX001 (ip), vehicle: saline 103 % of control | [3] 96 % of control

COC(=O)c1cncn1C(C)c1cccc2ccccc12 (stereo not drawn)
inactive: [5] 108 % of control | [7] 100 % of control

C[N+](C)(C)C(C1=CCCC1=O)c1ccccc1 (stereo not drawn)
inactive: endpoint: mean survival time, dose: 75.0 mg/kg/injection, schedule: Q01DX001 (ip), vehicle: saline 103 % of control | endpoint: mean survival time, dose: 150.0 mg/kg/injection, schedule: Q01DX001 (ip), vehicle: saline 91 % of control | endpoint: mean survival time, dose: 300.0 mg/kg/injection, schedule: Q01DX001 (ip), vehicle: saline 100 % of control

COc1ccc(OC)c(NC(=O)Nc2ccc(S(N)(=O)=O)cc2)c1
inactive: [4] 98 % of control | [6] 93 % of control | endpoint: mean survival time, dose: 400.0 mg/kg/injection, schedule: Q01DX009 (ip), vehicle: saline with Tween-80 96 % of control

CC(CO)CCC(=O)C(C)C1CC2(C)CCC3C(CCC4CC(O)CCC43C)C2C12SCCS2 (stereo not drawn)
inactive: [5] 98 % of control | [7] 102 % of control | [8] 98 % of control

CC1=NN(c2ccccc2)C(=O)C1(Br)Br
inactive: endpoint: mean survival time, dose: 25.0 mg/kg/injection, schedule: Q01DX009 (ip), vehicle: saline with Tween-80 96 % of control | [12] 98 % of control

SCCS
inactive: [12] 105 % of control | [4] 105 % of control | [6] 94 % of control | [11] 91 % of control
